From publication PMC5618426, “APETx4, a Novel Sea Anemone Toxin and a Modulator of the Cancer-Relevant Potassium Channel KV10.1” (Marine Drugs, 2017) come the findings set out here.

The subject of data set [1] is LNCaP. As to the kind of experiment: proliferation (IncuCyte confluency). Format: cell-based, human. The following applies: cell confluency (%) over time, n = 4 wells. On the procedure: (§1) The cell proliferation was quantified in terms of cell confluency (%) over time; data points were collected every hour. […] LNCaP, it is presumed that the observed effect cannot only be attributed to KV10.1 inhibition (Figure S5).
(§2) Cell lines SH-SY5Y (ACC 209), LNCaP (ACC 256) and NIH-3T3 (ACC 59) were purchased from DSMZ (Germany). MDA-MB-435S (HTB 129) and hTERT RPE-1 (CRL 4000) were obtained from ATCC (USA). Cell lines were cultured in their recommended media supplemented with 10% or 15% FCS (PAA laboratories, Cölbe, Germany) at 37 °C in humidified 5% CO2 atmosphere. All media were purchased from ThermoFisher Scientific (Waltham, MA, USA).
(§3) Cell proliferation, cytotoxicity and apoptosis were assessed in a 96-well microtiter plate by live-cell imaging using an IncuCyte Zoom System (Essen BioScience, Welwyn Garden City, UK). Cell proliferation was monitored in terms of cell confluency (%). Cell cytotoxicity was assessed by the CellTox Green Dye assay (Promega, Madison, WI, USA). The IncuCyte Caspase-3/7 apoptosis assay (Essen BioScience, UK) was used to evaluate the effect of APETx4 on the apoptotic pathway.
(§4) Live-cell imaging data were collected from the IncuCyte Zoom software and analyzed using GraphPad Prism 6 software. Proliferation was measured as Phase Object Confluence (%), cytotoxicity and apoptosis were measured as Green Object Count (1/mm²). Data points were collected every hour. In order to improve the clarity of the graphs, only the data points for every 5 h are shown. All data are represented as mean ± S.E.M of n = 4 different wells.

In data set [2] the test system is MDA-MB-435S. As to the kind of experiment: proliferation (IncuCyte confluency). The format is cell-based, human. Conditions: cell confluency (%) over time, n = 4 wells. On the procedure:
as §1, §2, §3, §4

For data set [3], the system named is SH-SY5Y. Kind of data set: proliferation (IncuCyte confluency). The following applies: cell confluency (%) over time, n = 4 wells. Format: cell-based, human. As for the experimental part: as §1, §2, §3, §4
Data set [4] relates to hTERT RPE-1. As to the kind of experiment: proliferation (IncuCyte confluency). The format is cell-based, human. The following applies: cell confluency (%) over time, n = 4 wells. On the procedure:
as §1, §2, §3, §4

In the next data set the test system is NIH-3T3. As to the kind of experiment: proliferation (IncuCyte confluency). The format is cell-based, mouse. The following applies: cell confluency (%) over time, n = 4 wells. As for the experimental part: as §1, §2, §3
Live-cell imaging data were collected from the IncuCyte Zoom software and analyzed using GraphPad Prism 6 software. Proliferation was measured as Phase Object Confluence (%), cytotoxicity and apoptosis were measured as Green Object Count (1/mm²). Data points were collected every hour. […]

Data set [5] relates to LNCaP. Format: cell-based, human.
Text: (§5) The proapoptotic activity of APETx4 was visualized and quantified by the addition of the IncuCyte Caspase-3/7 Reagent. This reagent is an inert and non-fluorescent substrate, which is cleaved by activated caspase-3/7 during early apoptosis. The cleavage of the reagent releases a DNA-binding green fluorescent dye. […] In Figure 7 an overview is given for the caspase assays of all the tested cell lines.
(§6) Figure 7 Investigation of the proapoptotic effect of APETx4 on various cell lines using a Caspase-3/7 Reagent. The amount of cells in early apoptosis was plotted as Green Object Count (1/mm²) versus time (hours). The data points represented as red triangles were obtained from apoptosis experiments with cells incubated without APETx4, the green squares represent experiments with 20 µM APETx4 and the blue circles were obtained from experiments with 50 µM APETx4.
as §2, §3, §4

Data set [6] has as its system MDA-MB-435S. Format: cell-based, human.
Text: as §5, §6, §2, §3, §4

The test system of data set [7] is SH-SY5Y. Format: cell-based, human.
Text: as §5, §6, §2, §3, §4

Data set [8] concerns hTERT RPE-1. Format: cell-based, human.
Text: as §5, §6, §2, §3, §4

[9] abbreviates: 50 µM APETx4, immediately after toxin addition.
Where [10] appears, read: 50 µM APETx4, 0 h, 24 h and 48 h.
Where [11] appears, read: green object count (1/mm²) versus incubation time.

Positions of bridges follow the written chain, without caps; N, C: chain ends. No end group written: not given here. Some results are limits rather than exact numbers.

With “GTTCYCGKTIGIYWFGKYSCPTNRGYTGSCPYFLGICCYPVD (disulfide 4-37, 6-30, 20-38) [APETx4]”, the antiproliferative effect entry with LNCaP [1] was “concentration-dependent antiproliferative effect”; with MDA-MB-435S [2] it was “concentration-dependent antiproliferative effect”; with SH-SY5Y [3], “concentration-dependent antiproliferative effect”; with hTERT RPE-1 [4], “concentration-dependent antiproliferative effect”; in the data set with NIH-3T3, “without affecting the proliferation of healthy fibroblast cells”. The “viability in cell images” value in the data set on LNCaP [5] (setting [9]) is “became less viable”; in the data set with MDA-MB-435S [6] (setting [10]), “immediate effects were not clearly observed”; in the data set with SH-SY5Y [7] (setting [10]), “immediate effects were not clearly observed”; in the data set with hTERT RPE-1 [8] (setting [9]) it was “became less viable”. For the same sequence, the “response time in caspase assay” value in the data set with LNCaP [5] (very rapid response) and in the data set with hTERT RPE-1 [8] (very rapid response) was less than 60 min each time. Further, the “time course of green fluorescent cells (early apoptosis)” value in the data set with MDA-MB-435S [6] (setting [11]) and in the data set on SH-SY5Y [7] (setting [11]) was “gradual increase in green fluorescent cells” each time. Moreover, the “cytotoxic effect in Xenopus oocytes” value in the data set with Xenopus oocytes was “cytotoxic effect is not observed”.
